This passage reports Kd results from PMC10175255, “The cell wall lipoprotein CD1687 acts as a DNA binding protein during deoxycholate-induced biofilm formation in Clostridioides difficile” (NPJ Biofilms and Microbiomes, 2023).

The Kd is the constant that tells how readily two partners part at equilibrium.

In the assay the target is T1, CD1687 (Clostridioides difficile, UniProt Q186P2).
T1 construct: gene CD630_16870; signal peptide removed, hexahistidine tag kept, expressed in E. coli Bli5 from a pET20-derived plasmid, Ni-NTA purified
The assay can be described thus: surface plasmon resonance (Biacore T200), His-tagged protein captured on Ni-NTA chip. The class given is binding. Background: SPR reads the build-up and loss of mass on a sensor chip optically.

T1 sequence (Q186P2 entry or part of it): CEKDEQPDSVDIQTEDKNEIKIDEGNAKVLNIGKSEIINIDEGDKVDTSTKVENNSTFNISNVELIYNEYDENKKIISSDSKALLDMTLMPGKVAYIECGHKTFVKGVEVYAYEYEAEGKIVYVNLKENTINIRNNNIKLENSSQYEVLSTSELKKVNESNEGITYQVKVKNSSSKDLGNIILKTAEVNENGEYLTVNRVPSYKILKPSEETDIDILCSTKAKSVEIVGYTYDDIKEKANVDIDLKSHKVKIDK

Turning to `C[C@H](CCC(=O)O)[C@H]1CC[C@H]2[C@@H]3CC[C@@H]4C[C@H](O)CC[C@]4(C)[C@H]3C[C@H](O)[C@]12C` [deoxycholate], the dissociation constant Kd stood at 1.65 ± 0.58 mM.
